In patent publication US9140688B2, “Sperm staining and sorting methods” (INGURAN, LLC, priority 2011, dated 2015):
Where two headings read alike, the source gives them in different places.

Legend:
[1] = test system: membrane compromised bovine sperm stained with Hoechst 33342; test: Dead quenching: dead gate intensity divided by live gate intensity, flow cytometry of stained bovine sperm; assay type: cell-based; conditions: for Dead Intensity (dead gate intensity divided by live gate intensity): Ex 5; for Intensity (dead gate): Hoechst 48 μM
Source text: FIG. 4 illustrates an example bivariate plot and univariate histogram of the parameters measured during sex selection by a FACS on a flow cytometer. […] Without a dead quenching dye, both populations of sperm would overlap to a large extent, with unpredictable variations in the dead sperm.
The entire ejaculate of sperm was suspended in first staining buffer, specifically a 7.4 pH TALP described in TABLE 1, to a concentration of 160×10^6 sperm per mL (determined on nucleocounter) and divided into three aliquots of about 20 mL into 50 mL Falcon tubes and pre-warmed for 10 minutes at 34° C. The DNA selective fluorescent dye, Hoechst 33342, was added and samples were held at 34° C. for 60 minutes. 3 different Hoechst 33342 Stain Levels were used=12 μL, 14 μL and 16 μL per 2 mL (effective concentrations of 48 μM, 56 μM, 64 μM).
Preparation of the second buffer including the dead quenching dye—A 2 L bag of TALP, described in TABLE 1, was adjusted to pH 5.60 using HCl and then sterile filtered. […] For each of the four dyes tested (R40—red food dye No. 40, Y5—yellow food dye No. 5, Y6—yellow food dye No. 6 and PR—phenol red), an appropriate number of milligrams of each powder was placed in a Erlenmeyer Flask and then an exact amount of TALP pH 5.60 was added to create a […] concentration of the dye. The result was a working TALP stock for each dye with a 100% (125 μM) relative amount of dye 50% relative (62.5 μM) and 20% relative (25 μM) solutions were made by dilution of 100% by TALP pH 5.60.
After this “bulk” staining for 60 minutes, 1 mL aliquots of stained sperm were combined with 1 mL aliquots of the second buffer including the dead quenching dyes. Samples sat for approximately 30 minutes at room temperature before being analyzed on a MoFlo SX (Beckman Coulter, USA) sperm sorting flow cytometer. Event rates were held as close to 13,000 as possible at the point of data acquisition.
The total number of individual treatments was 42 tubes, each containing 2 mL of stained sample. The alignment of the sorter was established using nuclei and confirmed with live sample from the 50% Red 40 series. Once good alignment was established, each tube was placed on the sorter long enough to establish a stabile dead gate population (about 30 seconds) and then a screenshot was taken and saved as a .jpeg image. This approach of rapidly documenting each sample is used to assure the most consistent alignment between all samples. Realignment of sorter will not cause differences in the intensities of live and dead gate populations but will cause differences in split quality.
FIG. 4 illustrates an example histogram. The ratio of dead gate intensity divided by live gate intensity is created by dividing the distance “A” by the distance “B” shown as a percentage. Lower values mean higher levels of quenching. The ratio of peak height divided by valley height is created by dividing the distance “C” by the distance “D”. A value of 1.00 means “no split” while higher values mean “better splits”. […]

[2] = test system: X- and Y-chromosome bearing bovine sperm stained with Hoechst 33342; test: Split quality: height of peak divided by height of valley (PV), flow cytometry of stained bovine sperm; assay type: cell-based; conditions: for Height of Peak/Height of Valley: Ex 5; for Height of Peak Divided by Height of Valley: Ex 7, Phenol Red 620 μM with Yellow 6 62 μM
[3] = solvent water, cited from earlier work
[4] = dye 62.5 μM, Hoechst 12 μL/2 mL
[5] = dye 62.5 μM, Hoechst 14 μL/2 mL
[6] = dye 62.5 μM, Hoechst 16 μL/2 mL

O=S1(=O)OC(c2ccc(O)cc2)(c2ccc(O)cc2)c2ccccc21 [Phenol Red, phenolsulfonphthalein]
Dead Intensity (dead gate intensity divided by live gate intensity) ([1]; dye 25 μM, Average of Hoechst levels): 94%
Dead Intensity (dead gate intensity divided by live gate intensity) ([1]; dye 25 μM, Hoechst 12 μL/2 mL): 94%
Dead Intensity (dead gate intensity divided by live gate intensity) ([1]; dye 25 μM, Hoechst 14 μL/2 mL): 97%
Dead Intensity (dead gate intensity divided by live gate intensity) ([1]; dye 25 μM, Hoechst 16 μL/2 mL): 90%
Dead Intensity (dead gate intensity divided by live gate intensity) ([1]; dye 62.5 μM, Average of Hoechst levels): 87%
Dead Intensity (dead gate intensity divided by live gate intensity) [1, 4]: 90%
Dead Intensity (dead gate intensity divided by live gate intensity) [1, 5]: 90%
Dead Intensity (dead gate intensity divided by live gate intensity) [1, 6]: 80%
Dead Intensity (dead gate intensity divided by live gate intensity) ([1]; dye 125 μM, Average of Hoechst levels): 79%
Dead Intensity (dead gate intensity divided by live gate intensity) ([1]; dye 125 μM, Hoechst 12 μL/2 mL): 80%
Dead Intensity (dead gate intensity divided by live gate intensity) ([1]; dye 125 μM, Hoechst 14 μL/2 mL): 80%
Dead Intensity (dead gate intensity divided by live gate intensity) ([1]; dye 125 μM, Hoechst 16 μL/2 mL): 78%
amount of dye needed for a similar dead gate intensity ratio as red food dye No. 40 and yellow food dye No. 6 ([1]; Ex 6): twelve times more
Intensity (dead gate) ([1]; Ex 6, dye 125 μM, pH 7.40): 85%
Intensity (dead gate) ([1]; Ex 6, dye 125 μM, resulting pH 6.70): 79%
Intensity (dead gate) ([1]; Ex 6, dye 250 μM, pH 7.40): 76%
Intensity (dead gate) ([1]; Ex 6, dye 250 μM, resulting pH 6.70): 70%
Intensity (dead gate) ([1]; Ex 6, dye 500 μM, pH 7.40): 66%
Intensity (dead gate) ([1]; Ex 6, dye 500 μM, resulting pH 6.70): 67%
Intensity (dead gate) ([1]; Ex 6, dye 750 μM, pH 7.40): 56%
Intensity (dead gate) ([1]; Ex 6, dye 750 μM, resulting pH 6.70): 55%
Intensity (dead gate) ([1]; Ex 6, dye 875 μM, pH 7.40): 47%
Intensity (dead gate) ([1]; Ex 6, dye 875 μM, resulting pH 6.70): 45%
Intensity (dead gate) ([1]; Ex 6, dye 1250 μM, pH 7.40): 43%
Intensity (dead gate) ([1]; Ex 6, dye 1250 μM, second buffer pH 5.60 (resulting pH 6.70)): 41%
Height of Peak/Height of Valley ([2]; dye 25 μM, Average of 12 and 14 μL series): 1.74
Height of Peak/Height of Valley ([2]; dye 25 μM, Hoechst 12 μL/2 mL): 1.82
Height of Peak/Height of Valley ([2]; dye 25 μM, Hoechst 14 μL/2 mL): 1.65
Height of Peak/Height of Valley ([2]; dye 25 μM, Hoechst 16 μL/2 mL): 1.00
Height of Peak/Height of Valley ([2]; dye 62.5 μM, Average of 12 and 14 μL series): 1.75
Height of Peak/Height of Valley [2, 4]: 1.62
Height of Peak/Height of Valley [2, 5]: 1.87
Height of Peak/Height of Valley [2, 6]: 1.00
Height of Peak/Height of Valley ([2]; dye 125 μM, Average of 12 and 14 μL series): 1.62
Height of Peak/Height of Valley ([2]; dye 125 μM, Hoechst 12 μL/2 mL): 1.49
Height of Peak/Height of Valley ([2]; dye 125 μM, Hoechst 14 μL/2 mL): 1.75
Height of Peak/Height of Valley ([2]; dye 125 μM, Hoechst 16 μL/2 mL): 1.00
PV ([2]; Ex 6, dye 125 μM, pH 7.40, Hoechst 48 μM): 1.27
PV ([2]; Ex 6, dye 125 μM, resulting pH 6.70, Hoechst 48 μM): 1.00
PV ([2]; Ex 6, dye 250 μM, pH 7.40, Hoechst 48 μM): 1.22
PV ([2]; Ex 6, dye 250 μM, resulting pH 6.70, Hoechst 48 μM): 1.17
PV ([2]; Ex 6, dye 500 μM, pH 7.40, Hoechst 48 μM): 1.51
PV ([2]; Ex 6, dye 500 μM, resulting pH 6.70, Hoechst 48 μM): 1.25
PV ([2]; Ex 6, dye 750 μM, pH 7.40, Hoechst 48 μM): 1.46
PV ([2]; Ex 6, dye 750 μM, resulting pH 6.70, Hoechst 48 μM): 1.25
PV ([2]; Ex 6, dye 875 μM, pH 7.40, Hoechst 48 μM): 1.44
PV ([2]; Ex 6, dye 875 μM, resulting pH 6.70, Hoechst 48 μM): 1.20
PV ([2]; Ex 6, dye 1250 μM, pH 7.40, Hoechst 48 μM): 1.30
PV ([2]; Ex 6, dye 1250 μM, resulting pH 6.70, Hoechst 48 μM (understained)): 1.29
Height of Peak Divided by Height of Valley ([2]; cells 100 million per mL): 1.49
Height of Peak Divided by Height of Valley ([2]; cells 150 million per mL): 1.34
Height of Peak Divided by Height of Valley ([2]; cells 250 million per mL): 1.43
Height of Peak Divided by Height of Valley ([2]; cells 300 million per mL): 1.36
PV ([2]; Ex 8, Bull 1, Hoechst 44 μM, PR 250 μM with Y6 50 μM): 1.52
PV ([2]; Ex 8, Bull 1, Hoechst 44 μM, PR 500 μM alone): 1.97
PV ([2]; Ex 8, Bull 1, Hoechst 60 μM, PR 375 μM alone): 2.38
PV ([2]; Ex 8, Bull 1, Hoechst 60 μM, PR 375 μM with Y6 50 μM): 2.38
PV ([2]; Ex 8, Bull 1, Hoechst 60 μM, PR 1200 μM with R40 20 μM): 2.12
PV ([2]; Ex 8, Bull 2, Hoechst 28 μM, PR 375 μM alone): 1.96
PV ([2]; Ex 8, Bull 2, Hoechst 28 μM, PR 375 μM with Y6 50 μM): 2.05
PV ([2]; Ex 8, Bull 2, Hoechst 44 μM, PR 225 μM with Y6 50 μM): 1.56
PV ([2]; Ex 8, Bull 2, Hoechst 44 μM, PR 375 μM with R40 20 μM): 1.64
PV ([2]; Ex 8, Bull 2, Hoechst 44 μM, PR 375 μM with Y6 50 μM): 1.75
PV ([2]; Ex 8, Bull 2, Hoechst 60 μM, PR 375 μM with Y6 50 μM): 1.69
PV ([2]; Ex 8, Bull 2, Hoechst 60 μM, PR 375 μM with Y6 375 μM): 2.31
effect of addition on split quality, in words ([2]; Ex 8, each Hoechst level, with Red 40 or Yellow 6): always improved split quality
split enhancing effect compared to control, in words ([2]; Ex 10, 15, 45, 125 μM, averaged over 8 bulls): consistent split improvements at all concentrations after 30 minutes
Expected Absorption Maxima ([3]; longer-wavelength local maximum): 560 nm
Expected Absorption Maxima ([3]; shorter-wavelength local maximum): 440 nm
